{"source": "ChEMBL document CHEMBL5236632", "about": "“Membrane-Active Nonivamide Derivatives as Effective Broad-Spectrum Antimicrobials: Rational Design, Synthesis, and Biological Evaluation” (J Med Chem, 2022)", "key": {"Escherichia coli [1]": {"system": "Escherichia coli", "assay": "Antibacterial activity against Escherichia coli ATCC 25922 assessed as inhibition of visible growth measured after 18 to 24 hrs by broth dilution method", "assay_type": "functional", "conditions": "time 18-24 hrs"}, "Cell membrane [2]": {"system": "Cell membrane", "assay": "Induction of membrane depolarization in Staphylococcus aureus ATCC 29213 assessed as increase in fluorescence intensity at 4 to 8 times MIC measured for 60 mins by DiSC3(5) dye based fluorescence method", "assay_type": "subcellular"}, "Klebsiella pneumoniae [3]": {"system": "Klebsiella pneumoniae", "assay": "Antibacterial activity against Klebsiella pneumoniae ATCC 10031 assessed as inhibition of visible growth measured after 18 to 24 hrs by broth dilution method", "assay_type": "functional", "conditions": "time 18-24 hrs"}, "Cell membrane [4]": {"system": "Cell membrane", "assay": "Induction of membrane integrity disruption in methicillin-resistant Staphylococcus aureus NCTC 10442 assessed as increase fluoresence intensity at 4 to 8 times of MIC measured for 60 mins by SYTOX Green uptake assay", "assay_type": "subcellular"}, "Staphylococcus aureus [5]": {"system": "Staphylococcus aureus", "assay": "Eradication of biofilm in Staphylococcus aureus ATCC 29213 assessed as biofilm viability at 3.13 ug/ml measured after 24 hrs by crystal violet staining assay", "assay_type": "functional", "conditions": "dose 3.13 µg/ml"}, "Cell membrane [6]": {"system": "Cell membrane", "assay": "Induction of membrane integrity disruption in Staphylococcus aureus ATCC 29213 assessed as increase fluoresence intensity at 4 to 8 times of MIC measured for 60 mins by SYTOX Green uptake assay", "assay_type": "subcellular"}, "[7]": {"assay": "Selectivity ratio, HC50 for hemolytic activity in rabbit RBC to MIC for antibacterial activity against Acinetobacter baumannii R2889", "assay_type": "toxicity", "conditions": "rabbit red blood cells"}, "Klebsiella pneumoniae [8]": {"system": "Klebsiella pneumoniae", "assay": "Antibacterial activity against Klebsiella pneumoniae ATCC 10031 assessed as inhibition of visible growth measured after 18 to 24 hrs in presence of 100 ug/ml Ca2+ by broth dilution method", "assay_type": "functional", "conditions": "time 18-24 hrs"}, "Staphylococcus aureus [9]": {"system": "Staphylococcus aureus", "assay": "Eradication of biofilm in Staphylococcus aureus ATCC 29213 assessed as biofilm viability at 0.39 ug/ml measured after 24 hrs by crystal violet staining assay", "assay_type": "functional", "conditions": "dose 0.39 µg/ml"}, "[10]": {"assay": "Selectivity ratio, HC50 for hemolytic activity in rabbit RBC to MIC for antibacterial activity against Acinetobacter baumannii ATCC 17978", "assay_type": "toxicity", "conditions": "rabbit red blood cells"}, "Escherichia coli [11]": {"system": "Escherichia coli", "assay": "Antibacterial activity against Escherichia coli ATCC 25922 assessed as reduction in bacterial load at 8 time of MIC measured with in 30 mins by time kill assay", "assay_type": "functional", "conditions": "0.5 h"}, "Staphylococcus aureus [12]": {"system": "Staphylococcus aureus", "assay": "In vivo antibacterial activity against Staphylococcus aureus ATCC 29213 infected in C57BL/6 mouse keratitis model assessed as reduction in number of viable bacterial colonies in infected cornea at 5 mg/kg topically 4 times per day for 3 consecutive days", "assay_type": "functional", "conditions": "route top, time 3 day"}, "Staphylococcus aureus [13]": {"system": "Staphylococcus aureus", "assay": "Antibacterial activity against Staphylococcus aureus ATCC 29213 assessed as inhibition of visible growth measured after 18 to 24 hrs by broth dilution method", "assay_type": "functional", "conditions": "time 18-24 hrs"}, "Escherichia coli [14]": {"system": "Escherichia coli", "assay": "Eradication of biofilm in Escherichia coli ATCC 25922 assessed as biofilm viability at […] ug/ml measured after 24 hrs by crystal violet staining assay", "assay_type": "functional", "conditions": "dose […] microg/ml, 1.56 ug/mL"}, "Staphylococcus aureus [15]": {"system": "Staphylococcus aureus", "assay": "Antibacterial activity against methicillin-resistant Staphylococcus aureus NCTC 10442 assessed as inhibition of visible growth measured after 18 to 24 hrs in presence of 175.5 ug/ml K+ by broth dilution method", "assay_type": "functional", "conditions": "time 18-24 hrs"}, "Cell membrane [16]": {"system": "Cell membrane", "assay": "Induction of outer membrane permeability in Escherichia coli ATCC 25922 assessed as increase fluoresence intensity at 4 to 8 times of MIC measured for 60 mins by NPN uptake assay", "assay_type": "subcellular"}, "Lipopolysaccharide (LPS)": {"system": "Lipopolysaccharide (LPS)", "assay": "Displacement of BODIPY-TR-cadaverin from Escherichia coli lipopolysaccharide at 8 times of MIC incubated for 30 mins by fluorescence based analysis"}, "[17]": {"assay": "Selectivity ratio, HC50 for hemolytic activity in rabbit RBC to MIC for antibacterial activity against Klebsiella pneumoniae ATCC 14581", "assay_type": "toxicity", "conditions": "rabbit red blood cells"}, "Cell membrane [18]": {"system": "Cell membrane", "assay": "Induction of membrane integrity disruption in Escherichia coli ATCC 25922 assessed as increase fluoresence intensity at 4 to 8 times of MIC measured for 60 mins by SYTOX Green uptake assay", "assay_type": "subcellular"}, "[19]": {"assay": "Cytotoxicity against HEK293 cells assessed as cell viability after 24 hrs incubation byCCK-8 assay", "assay_type": "toxicity, cell-based", "conditions": "human"}, "Escherichia coli [20]": {"system": "Escherichia coli", "assay": "Antibacterial activity against Escherichia coli ATCC 25922 assessed as bacterial regrowth at 8 time of MIC measured after 24 hrs by time kill assay", "assay_type": "functional, organism-based"}, "Staphylococcus aureus [21]": {"system": "Staphylococcus aureus", "assay": "Eradication of biofilm in Staphylococcus aureus ATCC 29213 assessed as biofilm viability at 0.78 ug/ml measured after 24 hrs by crystal violet staining assay", "assay_type": "functional", "conditions": "dose 0.78 µg/ml"}, "[22]": {"assay": "Cytotoxicity against mouse NCTC clone 929 cells assessed as cell viability after 24 hrs incubation byCCK-8 assay", "assay_type": "toxicity, cell-based"}, "Staphylococcus aureus [23]": {"system": "Staphylococcus aureus", "assay": "Antibacterial activity against methicillin-resistant Staphylococcus aureus N315 assessed as inhibition of visible growth measured after 18 to 24 hrs by broth dilution method", "assay_type": "functional", "conditions": "time 18-24 hrs"}, "Staphylococcus aureus [24]": {"system": "Staphylococcus aureus", "assay": "Displacement of BODIPY-TR-cadaverin from Staphylococcus aureus lipoteichoic acid at 8 times of MIC incubated for 30 mins by fluorescence based analysis"}, "Escherichia coli [25]": {"system": "Escherichia coli", "assay": "Inhibition of biofilm formation Escherichia coli ATCC 25922 assessed as decrease in biofilm formation at 3.13 ug/ml measured after 24 hrs by crystal violet staining assay", "assay_type": "functional"}, "Staphylococcus aureus [26]": {"system": "Staphylococcus aureus", "assay": "Antibacterial activity against Staphylococcus aureus ATCC 29213 assessed as inhibition of visible growth measured after 18 to 24 hrs in presence of 3220 ug/ml Na+ by broth dilution method", "assay_type": "functional", "conditions": "time 18-24 hrs"}, "Staphylococcus aureus [27]": {"system": "Staphylococcus aureus", "assay": "Antibacterial activity against methicillin-resistant Staphylococcus aureus NCTC 10442 assessed as inhibition of visible growth measured after 18 to 24 hrs in presence of 3220 ug/ml Na+ by broth dilution method", "assay_type": "functional", "conditions": "time 18-24 hrs"}, "Staphylococcus aureus [28]": {"system": "Staphylococcus aureus", "assay": "Drug resistance development in Staphylococcus aureus ATCC 29213 assessed as fold change in MIC measured after 20 passages", "assay_type": "functional"}, "Acinetobacter baumannii": {"system": "Acinetobacter baumannii", "assay": "Antibacterial activity against Acinetobacter baumannii ATCC 17978 assessed as inhibition of visible growth measured after 18 to 24 hrs by broth dilution method", "assay_type": "functional", "conditions": "time 18-24 hrs"}, "Staphylococcus aureus [29]": {"system": "Staphylococcus aureus", "assay": "Eradication of biofilm in Staphylococcus aureus ATCC 29213 assessed as biofilm viability at 0.20 ug/ml measured after 24 hrs by crystal violet staining assay", "assay_type": "functional", "conditions": "dose 0.2 µg/ml"}, "Staphylococcus aureus [30]": {"system": "Staphylococcus aureus", "assay": "Antibacterial activity against methicillin-resistant Staphylococcus aureus N315 assessed as inhibition of visible growth measured after 18 to 24 hrs in presence of 100 ug/ml Ca2+ by broth dilution method", "assay_type": "functional", "conditions": "time 18-24 hrs"}, "Escherichia coli [31]": {"system": "Escherichia coli", "assay": "Eradication of biofilm in Escherichia coli ATCC 25922 assessed as biofilm viability at 6.25 ug/ml measured after 24 hrs by crystal violet staining assay", "assay_type": "functional", "conditions": "dose 6.25 µg/ml"}, "Pseudomonas aeruginosa": {"system": "Pseudomonas aeruginosa", "assay": "In vivo antibacterial activity against Pseudomonas aeruginosa ATCC 9027 infected in C57BL/6 mouse keratitis model assessed as reduction in number of viable bacterial colonies in infected cornea at 5 mg/kg topically 4 times per day for 3 consecutive days", "assay_type": "functional", "conditions": "route top, time 3 day"}, "Staphylococcus aureus [32]": {"system": "Staphylococcus aureus", "assay": "Antibacterial activity against Staphylococcus aureus ATCC 29213 assessed as fold increase in MIC measured after 18 to 24 hrs in presence of 512 ug/ml LTA/LPS by broth dilution method", "assay_type": "functional", "conditions": "time 18-24 hrs"}, "Klebsiella pneumoniae [33]": {"system": "Klebsiella pneumoniae", "assay": "Antibacterial activity against Klebsiella pneumoniae ATCC 10031 assessed as inhibition of visible growth measured after 18 to 24 hrs in presence of 175.5 ug/ml K+ by broth dilution method", "assay_type": "functional", "conditions": "time 18-24 hrs"}}, "note": "Active and inactive are the calls of the source. The calls are words filed in the database; no cut-off is given here."}
{"smiles": "CCCCCCCCC(=O)NCc1ccc(OCCCCCCNC(=N)N)c(OCCCCCCNC(=N)N)c1", "values": [{"measurement": "MIC", "setting": "Escherichia coli [1]", "value": 1.56, "unit": "µg/mL"}, {"measurement": "Activity", "setting": "Cell membrane [2]", "value": "Active"}, {"measurement": "MIC", "setting": "Klebsiella pneumoniae [3]", "value": 1.56, "unit": "µg/mL"}, {"measurement": "Activity", "setting": "Cell membrane [4]", "value": "Active"}, {"measurement": "Activity", "setting": "Staphylococcus aureus [5]", "value": 14, "unit": "%"}, {"measurement": "Activity", "setting": "Cell membrane [6]", "value": "Active"}, {"measurement": "selectivity ratio", "setting": "[7]", "value": 21.6}, {"measurement": "MIC", "setting": "Klebsiella pneumoniae [8]", "value": 3.12, "unit": "µg/mL"}, {"measurement": "Activity", "setting": "Staphylococcus aureus [9]", "value": 73.22, "unit": "%"}, {"measurement": "selectivity ratio", "setting": "[10]", "value": 21.6}, {"measurement": "Activity", "setting": "Escherichia coli [11]", "value": 4.56, "unit": "log10CFU/ml"}, {"measurement": "Activity", "setting": "Staphylococcus aureus [12]", "value": 6.5, "unit": "log10CFU/ml"}, {"measurement": "MIC", "setting": "Staphylococcus aureus [13]", "value": 0.78, "unit": "µg/mL"}, {"measurement": "Activity", "setting": "Escherichia coli [14]", "value": 93.71, "unit": "%"}, {"measurement": "MIC", "setting": "Staphylococcus aureus [15]", "value": 0.39, "unit": "µg/mL"}, {"measurement": "Activity", "setting": "Cell membrane [16]", "value": "Dose-Dependent Effect"}, {"measurement": "Activity", "setting": "Lipopolysaccharide (LPS)", "value": 103, "unit": "%"}, {"measurement": "selectivity ratio", "setting": "[17]", "value": 21.6}, {"measurement": "Activity", "setting": "Cell membrane [18]", "value": "Active"}, {"measurement": "CC50 at 24 h", "setting": "[19]", "value": 27.8, "unit": "µg/mL"}, {"measurement": "Activity", "setting": "Escherichia coli [20]", "value": "Active"}, {"measurement": "Activity", "setting": "Staphylococcus aureus [21]", "value": 64.77, "unit": "%"}, {"measurement": "CC50 at 24 h", "setting": "[22]", "value": 35.2, "unit": "µg/mL"}, {"measurement": "MIC", "setting": "Staphylococcus aureus [23]", "value": 0.39, "unit": "µg/mL"}, {"measurement": "Activity", "setting": "Staphylococcus aureus [24]", "value": 38.4, "unit": "%"}, {"measurement": "inhibition at 3.13 µg/mL", "setting": "Escherichia coli [25]", "value": 106, "unit": "%"}, {"measurement": "MIC", "setting": "Staphylococcus aureus [26]", "value": 0.39, "unit": "µg/mL"}, {"measurement": "MIC", "setting": "Staphylococcus aureus [27]", "value": 0.39, "unit": "µg/mL"}, {"measurement": "fold change (FC)", "setting": "Staphylococcus aureus [28]", "value": "<4"}, {"measurement": "MIC", "setting": "Acinetobacter baumannii", "value": 3.12, "unit": "µg/mL"}, {"measurement": "Activity", "setting": "Staphylococcus aureus [29]", "value": 87.32, "unit": "%"}, {"measurement": "MIC", "setting": "Staphylococcus aureus [30]", "value": 0.39, "unit": "µg/mL"}, {"measurement": "Activity", "setting": "Escherichia coli [31]", "value": 22.66, "unit": "%"}, {"measurement": "Activity", "setting": "Pseudomonas aeruginosa", "value": 4.69, "unit": "log10CFU/ml"}, {"measurement": "fold change (FC)", "setting": "Staphylococcus aureus [32]", "value": 8}, {"measurement": "MIC", "setting": "Klebsiella pneumoniae [33]", "value": 0.78, "unit": "µg/mL"}]}
